Source: PubChem BioAssay (NCI)
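All cell lines were grown in 96-well plates and treated with compound for 48 hours. GI50 marks 50% less growth. TGI: concentration producing complete growth inhibition.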

Columns and labels:
Assay in all cases: NCI-60 cell line screen, 48 h
[1] = system: SK-OV-3 ovarian
[2] = system: A549 NSCLC
[3] = system: SK-MEL-5 melanoma
[4] = system: HCT-15 colon
[5] = system: HCT-116 colon
[6] = system: HCC-2998 colon
[7] = system: SK-MEL-2 melanoma
[8] = system: SN12C renal
[9] = system: SK-MEL-28 melanoma
[10] = system: HOP-62 NSCLC
[11] = system: BT-549 breast
[12] = system: EKVX NSCLC
[13] = system: MALME-3M melanoma
[14] = system: UO-31 renal
[15] = system: CCRF-CEM leukemia
[16] = system: DU-145 prostate
[17] = system: A498 renal
[18] = system: MCF7 breast
[19] = system: NCI-H23 lung
[20] = system: SF-268 CNS
[21] = system: SF-295 CNS
[22] = system: SNB-19 CNS
[23] = system: HT29 colon
[24] = system: KM12 colon
[25] = system: HS 578T breast
[26] = system: IGROV1 ovarian
[27] = system: COLO 205 colon
[28] = system: M14 melanoma
[29] = system: NCI-H522 lung
[30] = system: PC-3 prostate
[31] = system: CAKI-1 renal
[32] = system: TK-10 renal
[33] = system: NCI/ADR-RES ovarian
[34] = system: HOP-92 NSCLC
[35] = system: MOLT-4 leukemia
[36] = system: SNB-75 CNS
[37] = system: RXF 393 renal
[38] = system: SR leukemia
[39] = system: UACC-257 melanoma
[40] = system: HL-60(TB) leukemia
[41] = system: NCI-H226 lung
[42] = system: MDA-MB-231 breast
[43] = system: OVCAR-8 ovarian
[44] = system: ACHN renal
[45] = system: 786-0 renal
[46] = system: SF-539 CNS
[47] = system: T-47D breast
[48] = system: OVCAR-4 ovarian
[49] = system: NCI-H460 lung
[50] = system: OVCAR-3 ovarian
[51] = system: SW-620 colon
[52] = system: UACC-62 melanoma
[53] = system: K-562 leukemia
[54] = system: U251 CNS
[55] = system: LOX IMVI melanoma
[56] = system: OVCAR-5 ovarian
[57] = system: RPMI-8226 leukemia
[58] = system: MDA-MB-435

Work on O=C(NS(=O)(=O)c1ccc(NC[C@H]2COCCO2)c([N+](=O)[O-])c1)c1ccc(N2CCN(CC3=C(c4ccc(Cl)cc4)CC4(CCC4)CC3)CC2)cc1Oc1cnc2[nH]ccc2c1 yielded a GI50 [1] of 1950 nM, a TGI [1] of 4.57 µM and a GI50 [2] of 3.08 µM. The TGI [2] was 14.2 µM, the GI50 [3] was 1600 nM and the TGI [3] was 2970 nM. It also gave a GI50 [4] of 1940 nM, a TGI [4] of 4.62 µM and a GI50 [5] of 2690 nM. The TGI [5] was 12.5 µM, the GI50 [6] was 1780 nM and the TGI [6] was 3.23 µM. It also gave a GI50 [7] of 1770 nM, a TGI [7] of 3.4 µM and a GI50 [8] of 1910 nM. It also gave a TGI [8] of 3.72 µM, a GI50 [9] of 1580 nM and a TGI [9] of 3.39 µM. The GI50 [10] was 1.79 µM, the TGI [10] was 3.71 µM and the GI50 [11] was 2420 nM. It also gave a TGI [11] of 5.39 µM, a GI50 [12] of 2870 nM and a TGI [12] of 9.12 µM. It also gave a GI50 [13] of 1690 nM, a TGI [13] of 3.2 µM and a GI50 [14] of 1690 nM. It also gave a TGI [14] of 3.52 µM, a GI50 [15] of 2690 nM and a TGI [15] greater than 100 µM. It also gave a GI50 [16] of 3570 nM, a TGI [16] of 70.6 µM and a GI50 [17] of 2360 nM. For the same compound, the TGI [17] was 5.74 µM, the GI50 [18] was 2290 nM and the TGI [18] was 10.4 µM. It also gave a GI50 [19] of 2770 nM, a TGI [19] of 8.6 µM and a GI50 [20] of 2970 nM. It also gave a TGI [20] of 17.9 µM, a GI50 [21] of 1660 nM and a TGI [21] of 4.08 µM. It also gave a GI50 [22] of 2390 nM, a TGI [22] of 7.28 µM and a GI50 [23] of 2580 nM. For the same compound, the TGI [23] was 8.14 µM, the GI50 [24] was 2210 nM and the TGI [24] was 5.11 µM. For the same compound, the GI50 [25] was 2120 nM, the TGI [25] was 5.76 µM and the GI50 [26] was 1930 nM. The TGI [26] was 3.91 µM, the GI50 [27] was 1850 nM and the TGI [27] was 3.4 µM. The GI50 [28] was 2110 nM, the TGI [28] was 4.99 µM and the GI50 [29] was 1930 nM. For the same compound, the TGI [29] was 4.62 µM, the GI50 [30] was 2430 nM and the TGI [30] was 13.5 µM. The GI50 [31] was 1800 nM, the TGI [31] was 5.11 µM and the GI50 [32] was 2290 nM. It also gave a TGI [32] of 7.27 µM, a GI50 [33] of 4.88 µM and a TGI [33] of 24.9 µM. It also gave a GI50 [34] of 1430 nM, a TGI [34] of 3.05 µM and a GI50 [35] of 1360 nM. It also gave a TGI [35] of 5.22 µM, a GI50 [36] of 1760 nM and a TGI [36] of 6.31 µM. It also gave a GI50 [37] of 1320 nM, a TGI [37] of 2760 nM and a GI50 [38] of 1820 nM. For the same compound, the TGI [38] was 5.31 µM, the GI50 [39] was 2070 nM and the TGI [39] was 4.57 µM. The GI50 [40] was 1600 nM, the TGI [40] was 4.83 µM and the GI50 [41] was 1880 nM. For the same compound, the TGI [41] was 3.93 µM, the GI50 [42] was 1620 nM and the TGI [42] was 3.21 µM. It also gave a GI50 [43] of 2180 nM, a TGI [43] of 5.06 µM and a GI50 [44] of 2230 nM. It also gave a TGI [44] of 5.8 µM, a GI50 [45] of 2470 nM and a TGI [45] of 5.69 µM. For the same compound, the GI50 [46] was 1880 nM, the TGI [46] was 4.03 µM and the GI50 [47] was 2240 nM. The TGI [47] was 8.99 µM, the GI50 [48] was 2470 nM and the TGI [48] was 9.81 µM. It also gave a GI50 [49] of 2150 nM, a TGI [49] of 6.12 µM and a GI50 [50] of 1820 nM. It also gave a TGI [50] of 3.7 µM, a GI50 [51] of 2.47 µM and a TGI [51] of 6.6 µM. It also gave a GI50 [52] of 1510 nM, a TGI [52] of 3 µM and a GI50 [53] of 3040 nM. The TGI [53] was greater than 100 µM, the GI50 [54] was 2190 nM and the TGI [54] was 5.38 µM. For the same compound, the GI50 [55] was 1850 nM, the TGI [55] was 3.63 µM and the GI50 [56] was 1730 nM. It also gave a TGI [56] of 4.03 µM.
O=C(O)c1cn(C2CC2)c2cc(N3CCN(C(=O)Nc4nc(-c5ccc(Br)cc5)cs4)CC3)c(F)cc2c1=O showed a GI50 [2] of 3.68 µM, a TGI [2] greater than 100 µM and a GI50 [4] of 1750 nM. For the same compound, the TGI [4] was greater than 100 µM, the GI50 [5] was 1170 nM and the TGI [5] was greater than 100 µM. It also gave a GI50 [6] of 2970 nM, a TGI [6] greater than 100 µM and a GI50 [57] of 437 nM. It also gave a TGI [57] greater than 100 µM, a GI50 [8] of 3070 nM and a TGI [8] greater than 100 µM. For the same compound, the GI50 [9] was 4080 nM, the TGI [9] was greater than 100 µM and the GI50 [10] was 4.34 µM. The TGI [10] was greater than 100 µM, the GI50 [13] was 853 nM and the TGI [13] was greater than 100 µM. For the same compound, the GI50 [14] was 1640 nM, the TGI [14] was greater than 100 µM and the GI50 [15] was 1230 nM. It also gave a TGI [15] greater than 100 µM, a GI50 [16] of 2050 nM and a TGI [16] greater than 100 µM. It also gave a GI50 [18] of 2700 nM, a TGI [18] greater than 100 µM and a GI50 [19] of 1430 nM. It also gave a TGI [19] greater than 100 µM, a GI50 [20] of 1230 nM and a TGI [20] greater than 100 µM. The GI50 [21] was 3060 nM, the TGI [21] was greater than 100 µM and the GI50 [22] was 1410 nM. It also gave a TGI [22] greater than 100 µM, a GI50 [23] of 2600 nM and a TGI [23] greater than 100 µM. For the same compound, the GI50 [24] was 1930 nM, the TGI [24] was greater than 100 µM and the GI50 [25] was 1910 nM. For the same compound, the TGI [25] was greater than 100 µM, the GI50 [26] was 3380 nM and the TGI [26] was greater than 100 µM. It also gave a GI50 [28] of 2240 nM, a TGI [28] greater than 100 µM and a GI50 [29] of 2410 nM. It also gave a TGI [29] greater than 100 µM, a GI50 [58] of 1880 nM and a TGI [58] greater than 100 µM. For the same compound, the GI50 [33] was greater than 100 µM, the TGI [33] was greater than 100 µM and the GI50 [34] was 2000 nM. It also gave a TGI [34] of 6.88 µM, a GI50 [35] of 622 nM and a TGI [35] greater than 100 µM. For the same compound, the GI50 [36] was 715 nM, the TGI [36] was greater than 100 µM and the GI50 [37] was 3900 nM. The TGI [37] was greater than 100000 nM, the GI50 [38] was 454 nM and the TGI [38] was greater than 100 µM. For the same compound, the GI50 [42] was 3480 nM, the TGI [42] was greater than 100 µM and the GI50 [43] was 3720 nM. The TGI [43] was greater than 100 µM, the GI50 [44] was 3110 nM and the TGI [44] was greater than 100 µM. The GI50 [45] was 1750 nM, the TGI [45] was greater than 100 µM and the GI50 [46] was 1560 nM. The TGI [46] was greater than 100 µM, the GI50 [47] was 1570 nM and the TGI [47] was greater than 100 µM. The GI50 [49] was 1090 nM, the TGI [49] was greater than 100 µM and the GI50 [50] was 1420 nM. The TGI [50] was greater than 100 µM, the GI50 [51] was 4.13 µM and the TGI [51] was greater than 100 µM. The GI50 [53] was 1510 nM, the TGI [53] was greater than 100 µM and the GI50 [54] was 1960 nM. It also gave a TGI [54] greater than 100 µM, a GI50 [55] of 1090 nM and a TGI [55] greater than 100 µM.
